Data as given in patent US12478607B2, “Compounds useful for inhibiting BFL1 and their use in therapy” (CHILDREN'S HOSPITAL MEDICAL CENTER, priority 2019, dated 2025).

Experiments:
BCL2A1 (A1) [1] = target: T1, BCL2A1 (A1) (Mus musculus (Mouse), UniProt Q07440); test: dose-response fluorescence polarization (FP) assay, displacement of FITC-labeled mNOXA peptide; assay type: binding, murine; details: 3 μM A1, 375 nM FITC-labeled mNOXA, overnight 20° C., triplicate
Description: (§1) These assays were carried out using fluorescently labeled NOXA peptide which binds within the BH3-binding groove. The FP assay measures the tumbling rate of the labeled NOXA peptide as a proxy for inhibition of BH3 binding using a competition-based approach. When NOXA is bound to BCL2A1, its rate of tumbling is low (and FP is high), whereas an effective inhibitor compound will displace NOXA, causing a fast rate of tumbling (and low FP value). The initial single high dose assay was performed with each compound using […] with BCL2A1 and FITC-NOXA, to observe the relative inhibition of the BCL2A1-NOXA interaction. Small molecules that deviated by three or more standard deviations from the control mean towards inhibition of binding were selected for further analysis. These compounds and any that were three standard deviations or more above the thermal shift controls in the DSF assays were tested in an FP dose-response experiment. […] The average thermal shift (Tm shift) in the DSF assay, along with the percentage of bound Noxa peptide from the single high dose FP assay are given below in Table 2 for each of these compounds. The first two compounds in Table 2 are reference compounds.
(§2) Compounds were additionally tested for specificity of binding by displacement of FITC-labeled mouse NOXA (mNoxa; Peptide 2.0) peptide via fluorescence polarization assay (FP). FP assays were performed in two steps: single-point high-concentration compounds and dose response of fluorescence polarization hits. A1 was added at 3 μM to 100 μM of each compound in 20 mM Tris pH 7, 500 mM NaCl, 0.005% Tween-20 buffer. After addition of 375 nM labeled mNOXA, 96-well plates were incubated overnight at 20° C. in the dark to achieve equilibrium before fluorescence polarization was measured with a Biotek Synergy H2. Autofluorescent compounds and fluorescent quenching compounds were corrected via ratiometric correction as described by Shapiro et al., 2009.
Dose response curves were measured by adding 3 μM A1 to a serial two-fold dilution series of each compound ranging from 400 μM to 781 nM in 20 mM Tris pH 7, 500 mM NaCl, 0.005% Tween-20 buffer. Some compounds were further tested to assess the accuracy of these two-fold dilutions with serial 1.33-fold dilutions. A1, compounds, buffer and lastly, 375 nM FITC-labeled mNOXA were added to each well and incubated in the dark at 20° C. overnight to achieve equilibrium, followed by measurement of polarization. All dose responses were performed in triplicate.

BCL2A1 (purified A1) = BCL2A1 (purified A1) (Mus musculus (Mouse), UniProt Q07440); test: differential scanning fluorimetry (DSF) thermal shift assay; assay type: binding, murine; details: 100 μM compound, 4.4 μM A1, triplicate; for ΔTm at 100 µM: read-out: Average Tm Shift
Sequence of BCL2A1 (purified A1) (Q07440 whole entry): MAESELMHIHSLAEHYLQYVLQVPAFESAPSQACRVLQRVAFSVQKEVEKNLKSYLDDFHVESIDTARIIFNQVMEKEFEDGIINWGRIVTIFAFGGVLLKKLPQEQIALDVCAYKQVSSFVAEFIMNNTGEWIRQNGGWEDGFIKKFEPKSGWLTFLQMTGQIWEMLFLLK
Source text: Thermal shift assays and fluorescence polarization competition assays were used to identify compounds that bind to BCL2A1/BFL1. Compounds were first tested for binding to BCL2A1 using differential scanning fluorimetry (DSF) thermal shift assays. DSF measures the midpoint temperature (Tm) for thermal denaturation of proteins; typically ligand binding stabilizes the protein fold, resulting in an increased Tm. During DSF experiments, all compounds that contributed to an increase in Tm that corresponded to at least three standard deviations from the mean were included in further assays.
100 μM of each compound was applied to purified A1 at 4.4 μM in triplicate. Sypro Orange dye was added at a final dilution of 1:1000 to protein- and compound-containing wells. An Applied Biosystems StepOnePlus was used to perform Differential Scanning Fluorimetry (DSF) by elevating the temperature from 20° C. to 99° C. and measuring fluorescence at every half degree C. Melting temperature was recorded as the maximum of the first derivative, indicating half of the protein population was unfolded.

BCL2A1 (A1) [2] = target: T1, BCL2A1 (A1); test: single high-dose fluorescence polarization (FP) assay, BCL2A1-NOXA interaction; assay type: binding, murine; details: 100 μM compound, 3 μM A1, 375 nM labeled mNOXA
Description: as §1, §2

[3] = tested on: wild-type activated primary murine T cells (splenocytes); test: in vitro apoptosis assay, wild-type activated primary murine T cells; assay type: cell-based; details: Mus musculus, T-cell, 24 hours, trypan blue live/dead count
Source text: (§3) We further tested the biological activity of the compounds using an in vitro apoptosis assay. Primary murine splenocyte cells were used as the model system. Single cell suspensions were generated from the spleens of either wild-type (WT) mice or mice having a genetic “knock-out” of the Bax and Bak genes, resulting in Bax/Bak deficient mice (Bax/Bak KO) which lack the core machinery of the intrinsic apoptotic pathway. Mice deficient in Bax/Bak are unable to undergo intrinsic apoptosis due to the lack of the pro-apoptotic Bax and Bak proteins in the pathway.
(§4) Purified cells were cultured on anti-CD3 coated (3 μg/mL, coated overnight, Biolegend, San Diego, CA) six-well plates in the presence of soluble anti-CD28 (2 μg/mL, Bio X Cell, West Lebanon, NH) and IL-2 (10 ng/mL, R&D Systems, Inc., Minneapolis, MN) in RPMI media (Life Technologies, Carlsbad, CA) for 24 hours at 37° C. Cells were then washed and cultured again in IL-2 (10 ng/mL) for 24 hours at 37° C. Cells were harvested and cultured for 24 hours on anti-CD3 coated 96-well plates at 500,000 cells per well with 2 μg/mL soluble anti-CD28, 10 ng/mL IL-2, 0.125 μg purified anti-mouse FasL (Biolegend, San Diego, CA), and varying concentrations of inhibitor compounds. Cells were then harvested and live and dead cells enumerated by trypan blue staining using the TC20 automated cell counter (Bio-Rad Laboratories, Des Plaines, IL).

[4] = tested on: T cells from Bax/Bak-deficient mice (Bax/Bak KO); test: in vitro apoptosis assay, Bax/Bak-deficient murine T cells; assay type: cell-based, mouse
Source text: as §3, §4

T1 sequence (Q07440 whole entry): as above

Row | IC50 (BCL2A1 (A1) [1]) | ΔTm at 100 µM (BCL2A1 (purified A1)) | % Bound Noxa (from high-dose FP) (BCL2A1 (A1) [2]) | Average Tm Shift (BCL2A1 (purified A1)) | Compound | EC50 [3] | EC50 fold higher in Bax/Bak-deficient cells than in wild-type cells ([4]; Bax/Bak-deficient versus wild-type T cells) | EC50 ([4]; Mus musculus, T-cell, Bax/Bak-deficient T cells, 24 hours, trypan blue live/dead count, read-out: EC50 of cell death)
1 | 48.5 µM | 19.2 °C | 70.39% |  | O=C(COc1c(Cl)cc(Cl)c2ccccc12)NC1c2ccccc2Oc2ccccc21 [Compound 1.006] |  |  | 
2 | 103 µM | -1.43 °C | 51.13% |  | CCN(CCNc1ccc(C)c2sc3ccccc3c(=O)c12)CC(C)(C)O [Compound 1.003] |  |  | 
3 | 333 µM | -0.85 °C |  |  | Cc1ccc(NCCNCC(C)(C)O)c2c(=O)c3ccccc3sc12 [Compound 1.005] |  |  | 

More lines, now with the values behind:

Row | Compound | IC50 (BCL2A1 (A1) [1]) | ΔTm at 100 µM (BCL2A1 (purified A1)) | % Bound Noxa (from high-dose FP) (BCL2A1 (A1) [2]) | Average Tm Shift (BCL2A1 (purified A1)) | EC50 [3] | EC50 fold higher in Bax/Bak-deficient cells than in wild-type cells ([4]; Bax/Bak-deficient versus wild-type T cells) | EC50 ([4]; Mus musculus, T-cell, Bax/Bak-deficient T cells, 24 hours, trypan blue live/dead count, read-out: EC50 of cell death)
4 | Cc1cc(N=Nc2ccc(N=Nc3c(O)c(S(=O)(=O)O)cc4cc(S(=O)(=O)O)ccc34)cc2C)ccc1N=Nc1ccc2cc(S(=O)(=O)O)cc(S(=O)(=O)O)c2c1 [REF 1, reference compound] |  |  |  | 1.92 °C |  |  | 
5 | Cc1ccc(NCCNCC(O)CO)c2c(=O)c3ccccc3sc12 (stereo not shown) [Compound 1.004] | 300 µM | -0.6 °C |  |  |  |  | 
6 | CCN(CC)CC(O)CNc1ccc(C)c2sc3ccccc3c(=O)c12 (stereo not shown) [Compound 1.001] | 49.1 µM | 0.49 °C | 41.48% |  | ~3 µM | about 10 fold | 20 to 30 µM
7 | CCN(CC)CCNc1ccc(C)c2sc3ccccc3c(=O)c12 [Compound 1.002] | 70.1 µM | 38.8 °C | 4.5% |  |  |  | 
8 | Cc1ccc(NC(=O)c2cc3ccccc3c(N=Nc3cc(S(=O)(=O)O)ccc3O)c2O)c(C)c1 [REF 2, reference compound] |  |  | 1.2% | −30.75 °C |  |  | 
